Results reported in ChEMBL document CHEMBL3351611, “Diversity-oriented synthesis-facilitated medicinal chemistry: toward the development of novel antimalarial agents” (J Med Chem, 2014).
Values after ≈ are worked out from the molar mass of the structure shown.

What was measured:
[1] = target: hERG (KCNH2) (Homo sapiens, UniProt Q12809); test: Displacement of [3H]astemizole from human ERG expressed in HEK293 cell membranes at 10 uM incubated for 75 mins by scintillation counting method; settings: HEK293 cell membranes that express hERG, probe [3H]astemizole
Sequence of hERG (KCNH2) (Q12809 whole entry): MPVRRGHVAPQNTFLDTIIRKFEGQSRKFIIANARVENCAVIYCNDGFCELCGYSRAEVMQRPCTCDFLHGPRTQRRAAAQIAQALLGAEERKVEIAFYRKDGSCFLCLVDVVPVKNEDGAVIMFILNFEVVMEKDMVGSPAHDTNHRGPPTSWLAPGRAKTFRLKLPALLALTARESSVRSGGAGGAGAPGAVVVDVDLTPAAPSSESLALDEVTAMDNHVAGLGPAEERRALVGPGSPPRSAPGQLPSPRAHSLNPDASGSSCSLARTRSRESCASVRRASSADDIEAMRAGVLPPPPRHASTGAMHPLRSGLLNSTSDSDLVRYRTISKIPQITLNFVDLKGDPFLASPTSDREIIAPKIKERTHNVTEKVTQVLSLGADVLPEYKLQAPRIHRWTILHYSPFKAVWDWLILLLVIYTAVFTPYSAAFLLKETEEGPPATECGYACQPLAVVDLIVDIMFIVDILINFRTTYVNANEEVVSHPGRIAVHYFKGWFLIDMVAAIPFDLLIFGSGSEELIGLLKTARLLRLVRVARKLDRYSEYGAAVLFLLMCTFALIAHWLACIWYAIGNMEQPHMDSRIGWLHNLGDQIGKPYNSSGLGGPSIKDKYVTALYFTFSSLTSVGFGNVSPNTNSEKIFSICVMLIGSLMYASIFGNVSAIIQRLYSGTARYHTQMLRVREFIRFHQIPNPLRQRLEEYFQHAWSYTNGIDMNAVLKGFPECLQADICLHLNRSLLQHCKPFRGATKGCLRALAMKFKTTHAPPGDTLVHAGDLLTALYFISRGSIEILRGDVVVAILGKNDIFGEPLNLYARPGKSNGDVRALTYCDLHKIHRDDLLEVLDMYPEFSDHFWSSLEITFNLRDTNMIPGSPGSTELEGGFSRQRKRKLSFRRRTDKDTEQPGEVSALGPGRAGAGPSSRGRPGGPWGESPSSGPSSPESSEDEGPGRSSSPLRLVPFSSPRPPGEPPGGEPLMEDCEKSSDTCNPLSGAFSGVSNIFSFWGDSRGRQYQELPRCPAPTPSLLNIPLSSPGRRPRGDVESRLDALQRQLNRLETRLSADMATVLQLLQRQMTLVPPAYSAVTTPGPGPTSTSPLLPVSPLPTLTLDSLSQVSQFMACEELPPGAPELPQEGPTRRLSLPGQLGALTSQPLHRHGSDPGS

[2] = Lipophilicity, log D of the compound by HPLC method; assay type: physicochemical
[3] = system: Plasmodium falciparum; test: Antimalarial activity against Plasmodium falciparum Dd2 assessed as inhibition of parasite proliferation; assay type: functional
[4] = Stability in mouse microsomes assessed as compound remaining at 1 uM after 1 hr at 37 degC by UPLC-MS method; assay type: ADME, Microsome; settings: read-out: Stability
[5] = Solubility in PBS buffet at pH 7.4 at 100 uM incubated for 18 hrs by UPLC-MS method; assay type: physicochemical; settings: for solubility: buffer, pH 7.4, 18 h, 100 µM
[6] = Plasma concentration in Plasmodium berghei ANKA infected CD1 Swiss albino mouse at 100 mg/kg, ip dosed seven times every 12 hrs over 3 days measured 30 mins after final dose on day 3; assay type: ADME, organism-based; parameters: dose 100 mg/kg, route intraperitoneal
[7] = Plasma concentration CD1 mouse at 20 mg/kg, ip dosed through cassette administration measured after 2 hrs by LC-MS/MS method; assay type: ADME, organism-based; parameters: dose 20 mg/kg, route intraperitoneal
[8] = system: Plasmodium berghei; test: Antimalarial activity against Plasmodium berghei ANKA infected in CD1 Swiss albino mouse assessed as reduction in parasitemia level at 100 mg/kg, ip dosed seven times every 12 hrs over 3 days relative to control; assay type: functional; settings: route intraperitoneal
[9] = system: Plasmodium berghei; test: Antimalarial activity against Plasmodium berghei ANKA infected in CD1 Swiss albino mouse assessed as reduction in parasitemia; assay type: functional

| Structure (SMILES) | logD [2] | GI50 [3] [nM] | remaining at 1 h, 1 µM [4] [%] | solubility [5] [µM] | also measured |
| --- | --- | --- | --- | --- | --- |
| C[C@@H]1CN([C@@H](C)CN(C)C)C(=O)c2cc(NC(=O)Nc3ccccc3)ccc2O[C@@H](C)CCCCO[C@H]1CN(C)S(=O)(=O)c1ccc(F)cc1 | 4.1 | – | – | – | inhibition at 1.25 h, 10 µM [1]: 95% |
| Cc1noc(C)c1NC(=O)Nc1ccc2c(c1)C(=O)N([C@@H](C)CO)C[C@@H](C)[C@H](CN(C)S(=O)(=O)c1ccc(F)cc1)OCCCC[C@H](C)O2 | 2.9 | 240 | < 5 | – | inhibition at 1.25 h, 10 µM [1]: 11% |
| Cc1noc(C)c1NC(=O)Nc1ccc2c(c1)C(=O)N(C(C)C)C[C@@H](C)[C@H](CN(C)S(=O)(=O)c1ccc(F)cc1)OCCCC[C@H](C)O2 | 4 | 22 | < 5 | – | solubility at 18 h, 100 µM ([5]; PBS buffer, pH 7.4): < 5 µM; inhibition at 1.25 h, 10 µM [1]: 0% |
| COc1ccc(COC[C@H](C)N2C[C@@H](C)[C@H](CN(C)S(=O)(=O)c3ccc(F)cc3)OCCCC[C@H](C)Oc3ncc(F)cc3C2=O)cc1 | – | 162 | – | < 5 | – |
| C[C@@H]1CN([C@@H](C)CN(C)C)C(=O)c2cccnc2O[C@@H](C)CCCCO[C@H]1CN(C)S(=O)(=O)c1ccc(F)cc1 | – | 231 | < 5 | > 100 | – |
| CCN(CC)C[C@H](C)N1C[C@@H](C)[C@H](CN(C)S(=O)(=O)c2ccc(F)cc2)OCCCC[C@H](C)Oc2ncccc2C1=O | – | 79 | < 5 | > 100 | – |
| C[C@@H]1CN([C@@H](C)CN(C)Cc2cc(F)ccc2F)C(=O)c2cccnc2O[C@@H](C)CCCCO[C@H]1CN(C)S(=O)(=O)c1ccc(F)cc1 | – | 10 | – | < 5 | – |
| COc1ccc(COC[C@H](C)N2C[C@@H](C)[C@H](CN(C)S(=O)(=O)c3ccc(F)cc3)OCCCC[C@H](C)Oc3ccsc3C2=O)cc1 | – | 481 | – | < 5 | – |
| COc1ccc(COC[C@H](C)N2C[C@@H](C)[C@H](CN(C)S(=O)(=O)c3ccc(F)cc3)OCCCC[C@H](C)Oc3c(cnn3C)C2=O)cc1 | – | 375 | – | 15 (≈ 10.1 µg/mL) | – |
| COc1ccc(COC[C@H](C)N2CC[C@H](CN(C)S(=O)(=O)c3ccc(F)cc3)OCCCC[C@H](C)Oc3ccc(NC(=O)Nc4c(C)noc4C)cc3C2=O)cc1 | – | 20 | – | < 5 | – |
| Cc1noc(C)c1NC(=O)Nc1ccc2c(c1)C(=O)N([C@@H](C)CN(C)C)CC[C@H](CN(C)S(=O)(=O)c1ccc(F)cc1)OCCCC[C@H](C)O2 | – | 71 | 2 | 99 (≈ 71 µg/mL) | – |
| COc1ccc(COC[C@H](C)N2C[C@@H](C)[C@H](CN(C)S(=O)(=O)c3ccc(F)cc3)OCCCCCOc3ccc(NC(=O)Nc4c(C)noc4C)cc3C2=O)cc1 | – | 6 | – | – | – |
| Cc1noc(C)c1NC(=O)Nc1ccc2c(c1)C(=O)N([C@@H](C)CN(C)C)C[C@@H](C)[C@H](CN(C)S(=O)(=O)c1ccc(F)cc1)OCCCCCO2 | – | 111 | – | > 100 | – |
| COc1ccc(COC[C@H](C)N2C[C@@H](C)[C@H](CN(C)S(=O)(=O)c3ccc(F)cc3)OCCCCCNc3ccc(NC(=O)Nc4c(C)noc4C)cc3C2=O)cc1 | – | 76 | – | < 5 | – |
| COc1ccc(COC[C@H](C)N2C[C@@H](C)[C@H](CN(C)S(=O)(=O)c3ccc(F)cc3)OCCCCOc3ccc(NC(=O)Nc4c(C)noc4C)cc3C2=O)cc1 | – | 17 | 17 | < 5 | – |
| CNC[C@H](C)N1C[C@@H](C)[C@H](CN(C)S(=O)(=O)c2ccc(F)cc2)OCCCCOc2ccc(NC(=O)Nc3c(C)noc3C)cc2C1=O | – | 624 | 65 | > 100 | – |
| Cc1noc(C)c1NC(=O)Nc1ccc2c(c1)C(=O)N([C@@H](C)CN(C)C)C[C@@H](C)[C@H](CN(C)S(=O)(=O)c1ccc(F)cc1)OCCCCO2 | – | 91 | 15 | > 100 | – |
| COc1ccc(COC[C@H](C)N2C[C@@H](C)[C@H](CN(C)S(=O)(=O)c3ccc(F)cc3)OCCCOc3ccc(NC(=O)Nc4c(C)noc4C)cc3C2=O)cc1 | – | 767 | – | < 5 | – |
| COc1ccc(COC[C@H](C)N2C[C@@H](C)[C@H](CN(C)S(=O)(=O)c3ccc(F)cc3)OCCOc3ccc(NC(=O)Nc4c(C)noc4C)cc3C2=O)cc1 | – | 2970 | – | 6 (≈ 4.61 µg/mL) | – |

| Structure (SMILES) | logD [2] | GI50 [3] [nM] | remaining at 1 h, 1 µM [4] [%] | solubility [5] [µM] | also measured |
| --- | --- | --- | --- | --- | --- |
| COc1ccc(COC[C@H](C)N2C[C@@H](C)[C@H](CN(C)S(=O)(=O)c3ccc(F)cc3)Oc3ccc(NC(=O)Nc4c(C)noc4C)cc3C2=O)cc1 | – | > 5000 | – | – | – |
| COc1ccc(COC[C@H](C)N2C[C@@H](C)[C@H](CN(C)S(=O)(=O)c3ccc(F)cc3)OCCCC[C@H](C)Oc3ccc(NC(=O)Nc4c(C)noc4C)cc3C2=O)cc1 | – | 0.88 | – | < 5 | – |
| C[C@@H]1CN([C@@H](C)CN(C)C)C(=O)c2cc(NC(=O)Nc3ccc(F)cc3)ccc2O[C@@H](C)CCCCO[C@H]1CN(C)S(=O)(=O)c1ccc(F)cc1 | 3.5 | 1.4 | < 5 | < 5 | – |
| C[C@@H]1CN([C@@H](C)CN(C)C)C(=O)c2cc(NC(=O)NC3COC3)ccc2O[C@@H](C)CCCCO[C@H]1CN(C)S(=O)(=O)c1ccc(F)cc1 | 1.1 | 32 | 8 | > 100 | – |
| Cc1noc(C)c1NC(=O)Nc1ccc2c(c1)C(=O)N([C@@H](C)CN(C)C)C[C@@H](C)[C@H](CN(C)S(=O)(=O)c1ccc(F)cc1)OCCCC[C@H](C)O2 | 2.9 | 4.2 | 8 | > 100 | concentration at 0.5 h [6]: 300 ng/mL; inhibition at 1.25 h, 10 µM [1]: 13%; concentration at 2 h [7]: 768 ng/mL; fold change (FC) [8]: 2 |
| CNC[C@H](C)N1C[C@@H](C)[C@H](CN(C)S(=O)(=O)c2ccc(F)cc2)OCCCC[C@H](C)Oc2ccc(NC(=O)Nc3c(C)noc3C)cc2C1=O | 1.7 | 320 | 51 | > 100 | – |
| CCN(CC)C[C@H](C)N1C[C@@H](C)[C@H](CN(C)S(=O)(=O)c2ccc(F)cc2)OCCCC[C@H](C)Oc2ccc(NC(=O)Nc3c(C)noc3C)cc2C1=O | 3.1 | 5 | 5 | 8 (≈ 6.07 µg/mL) | – |
| Cc1noc(C)c1NC(=O)Nc1ccc2c(c1)C(=O)N([C@@H](C)C[N+](C)(C)[O-])C[C@@H](C)[C@H](CN(C)S(=O)(=O)c1ccc(F)cc1)OCCCC[C@H](C)O2 | 1.5 | 160 | 35 | > 100 | – |
| Cc1noc(C)c1NC(=O)Nc1ccc2c(c1)C(=O)N([C@@H](C)CNCC(C)(C)C)C[C@@H](C)[C@H](CN(C)S(=O)(=O)c1ccc(F)cc1)OCCCC[C@H](C)O2 | 3.8 | 14 | 5 | 7 (≈ 5.41 µg/mL) | – |
| Cc1noc(C)c1NC(=O)Nc1ccc2c(c1)C(=O)N([C@@H](C)CNCC(F)(F)F)C[C@@H](C)[C@H](CN(C)S(=O)(=O)c1ccc(F)cc1)OCCCC[C@H](C)O2 | 3.9 | 9 | < 5 | – | inhibition at 1.25 h, 10 µM [1]: 15% |
| Cc1noc(C)c1NC(=O)Nc1ccc2c(c1)C(=O)N([C@@H](C)CN1CCOCC1)C[C@@H](C)[C@H](CN(C)S(=O)(=O)c1ccc(F)cc1)OCCCC[C@H](C)O2 | 3.5 | 105 | < 5 | 29 (≈ 22.4 µg/mL) | inhibition at 1.25 h, 10 µM [1]: 1% |
| COc1ccc(COC[C@H](C)N2C[C@@H](C)[C@H](CN(C)S(=O)(=O)c3ccc(F)cc3)OCCCC[C@H](C)OCCC2=O)cc1 | – | 3410 | – | < 5 | – |
| COc1ccc(COC[C@H](C)N2C[C@@H](C)[C@H](CN(C)S(=O)(=O)c3ccc(F)cc3)OCCCC[C@H](C)Oc3ccc(F)cc3C2=O)cc1 | – | 162 | – | < 5 | – |
| COc1ccc(COC[C@H](C)N2C[C@@H](C)[C@H](CN(C)S(=O)(=O)c3ccc(F)cc3)OCCCC[C@H](C)Oc3cc(F)ccc3C2=O)cc1 | – | 38 | – | < 5 | – |
| COc1ccc(COC[C@H](C)N2C[C@@H](C)[C@H](CN(C)S(=O)(=O)c3ccc(F)cc3)OCCCC[C@H](C)Oc3cc(C(F)(F)F)ccc3C2=O)cc1 | – | 48 | – | < 5 | – |
| COc1ccc(COC[C@H](C)N2C[C@@H](C)[C@H](CN(C)S(=O)(=O)c3ccc(F)cc3)OCCCC[C@H](C)Oc3cccnc3C2=O)cc1 | – | 403 | – | < 5 | – |
| COc1ccc(COC[C@H](C)N2C[C@@H](C)[C@H](CN(C)S(=O)(=O)c3ccc(F)cc3)OCCCC[C@H](C)Oc3ncccc3C2=O)cc1 | – | 59 | – | < 5 | – |
| COc1ccc(COC[C@H](C)N2C[C@@H](C)[C@H](CN(C)S(=O)(=O)c3ccc(F)cc3)OCCCC[C@H](C)Oc3nccnc3C2=O)cc1 | – | 214 | – | < 5 | – |
| C[C@H]1[C@H](OC(=O)CCC(=O)O)O[C@@H]2O[C@@]3(C)CC[C@H]4[C@H](C)CC[C@@H]1[C@@]24OO3 [ARTESUNATE] | – | – | – | – | inhibition (INH) [9]: 97% |
